According to patent US20230381157A1, “RIFABUTIN FOR THE TREATMENT OF ACINETOBACTER BAUMANNII” (University of Southern California, priority 2018, published 2023):
Values after ≈ are worked out from the molar mass of the structure shown. “Also recorded” adds a separate entry of the source. Like-named read-outs stand apart in the source and are kept apart here.

Assays:
[1] = Murine neuropenic lung infection model; assay type: in vivo, mouse
[2] = tested on: HepG2; conditions: top screen hits; IC50 against A. baumannii HUMC1 in 50% serum
[3] = tested on: S. aureus LAC; assay type: cell-based, Staphylococcus aureus; conditions: TSA
[4] = tested on: A. baumannii HUMC1; assay type: in vivo, mouse; conditions: for lung CFUs: lungs at 24 hrs post infection
[5] = tested on: K. pneumonia; assay: MIC, broth microdilution; assay type: cell-based; conditions: Klebsiella pneumoniae, K. pneumonia KPC-KP1
[6] = tested on: GFP expressing reporter strain of A. baumannii HUMC1; assay type: cell-based, Acinetobacter baumannii; conditions: addition of amino acids to RPMI vs RPMI alone; 6 hours
[7] = tested on: LAC-4; assay type: in vivo, Galleria mellonella; conditions: G. mellonella
[8] = tested on: E. coli JJ1886; assay type: cell-based, Escherichia coli; conditions: TSA
[9] = 5 mg/kg/daily for 3 days, oral gavage
[10] = 5 mg/kg/daily for 3 days, oral gavage, listed as RBT

CO[C@H]1/C=C/O[C@@]2(C)Oc3c(C)c(O)c4c(c3C2=O)C2=NC3(CCN(CC(C)C)CC3)NC2=C(NC(=O)/C(C)=C\C=C\[C@H](C)[C@H](O)[C@@H](C)[C@@H](O)[C@@H](C)[C@H](OC(C)=O)[C@@H]1C)C4=O [rifabutin]
efficacy vs RIF [1]: more effective as compared to RIF
Specificity HepG2 (CC50/IC50) [2]: 148.31
Mutation Frequency [3]: 1.10E−07
survival ([4]; 5 mg/kg for 3 days, […]): about 80%
survival [4, 9]: significantly improved
survival [4, 10]: significantly improved survival
lung CFUs [4, 9]: significantly lower CFUs in the lung
lung CFUs [4, 10]: significantly reduced lung CFUs; also recorded: significantly lower CFUs in the lung
survival ([4]; 10 mg/kg/day for 3 days, oral gavage, listed as RBT): modest improvement in survival; also recorded: modest survival benefit
reduction in the median CFUs in the blood as compared to RIF-treated mice ([4]; 10 mg/kg/day for 3 days, at 24 hours): 7 log
CFUs in blood (vs RIF) ([4]; C3H mice, 10 mg/kg/daily for 3 days, oral gavage, blood at 24 hrs): significant reduction in CFUs
improvement of survival rates ([4]; murine pneumonia, 5 mg/kg): over 70%
bacterial burden ([4]; murine pneumonia, 5 mg/kg, day 7 post-infection): about 2 Log10(CFU/mg lung)
MIC ([5]; MHII): 25 µg/mL (≈ 29.5 µM)
MIC ([5]; RPMI): 12.5 µg/mL (≈ 14.8 µM)
inhibition of GFP fluorescence [6]: less inhibition of GFP fluorescence
efficacy RBT vs RIF [7]: no difference in efficacy
Mutation Frequency [8]: 3.89E−08
